# Patent publication US20110166059A1, “MEANS AND METHODS FOR EVALUATING A THERAPY WITH A P38 MAP KINASE INHIBITOR” (priority 2008, published 2011)
# Tests used:
# TNF, IL-6 or IL-10 = conditions: human volunteers, control group increased after about 2-4 hours; oral inhibitor; cited from earlier work
# [1] = system: LPS-stimulated human monocytes; experiment: Microarray gene expression profile of long-term LPS-stimulated monocytes in the presence of kinase inhibitors; type: cell-based; conditions: for late-stage LPS-induced gene expression change (principal component analysis, FIG. 4): long-term (16 hours) LPS-treated monocytes, 100 ng/ml LPS, inhibitor 10 μM
# Protocol: (§1) Monocytes were isolated from pooled human buffy coats by Ficoll-Paque and subsequent Percoll (Pharmacia, Freiburg, Germany) density-gradient centrifugation to greater than 90% purity. Monocytes were cultured (1×10^6 cells/nil) in hydrophobic Teflon bags (Hereus, Hanau, Germany) in McCoy's 5a medium (Biochrom, Berlin, Germany) supplemented with 15% FCS, 2 mM L-glutamine, 200 IU penicillin, 100 μg/ml streptomycin and 1× NEAA (all from Biochrom, Berlin, Germany) and allowed to rest for 18 h prior to stimulation. Monocytes were exposed for 4 and 16 hours to 100 ng/ml LPS in the absence or presence of 10 μM PD98059, 10 μM GF109203X or 10 μm SB202190, respectively, or were left untreated
# Total cellular RNA was isolated from 3 independent experiments with untreated and LPS-stimulated human monocytes in the absence or presence of pharmacological kinase inhibitors (RNeasy kit; Qiagen, Hilden, Germany). RNA preparation, samples preparation and hybridization to Affymetrix Human Genome 133 A Gene Chip arrays were performed according to the manufacturer's instructions (Affymetrix, Santa Clara, Calif.).
# Ten micrograms of fragmented cRNA was, together with control cRNAs and grid alignment oligonucleotides, hybridized for 16 hours under constant rotation at 45° C. to Affymetrix Human Genome 133 A Gene Chip arrays (Affymetrix). Arrays were washed and stained using the Gene Chip Fluidics Station 400 (Affymetrix). Fluorescent signals were detected by the HP G2500A Gene Array Scanner (Affymetrix).
# Data were processed by MicroArray Suite (MAS) Software 5.0 (Affymetrix). Signals were scaled to a target intensity of 100 and log transformed. The algorithm applied in the MAS 5.0 software assigned individual average background values to each cell intensity and subtracted it from single raw cell intensities Single raw values were calculated for each probe set (i.e., transcript from the median of discrimination values and their significance was assessed by using a one-sided Wilcoxon rank test).
# While the MAS 5.0 software only allows comparison of 2 individuals data sets, we further studied the Affymetrix intensity files with the Expressionist Suite software package (GeneData, Basel, Switzerland) for a more sophisticated statistical analysis. […] The software package includes the Expressionist Refiner v3.0.4 which permits a global chip quality control with detection and masking of outliers and array defects, fluorescence gradient correction, and variance regularization. For final identification of significant gene expression difference we used Expressionist Analyst v4.0.5. First, data were normalized to a logarithmic mean of 180 in all experiments. […] Finally, n-fold changes were determined and screened for their significance by applying a t test. […]
# [2] = system: promoter regions of LPS-regulated proinflammatory genes (VCAM, IL8, DUSP1, TNF, MYC) in monocytes; experiment: Chromatin immunoprecipitation (ChIP) of histone acetylation and methylation at promoters of pro-inflammatory genes in LPS-treated monocytes; type: cell-based, human; conditions: long-term (16 h) LPS treatment, ongoing inhibition of p38 MAP kinase; FIGS. 8 and 10
# Protocol: as §1
# After stimulation, monocytes were formalin-fixed, washed, lysed, and sonicated. DNA-protein complexes were immunoprecipitated with polyclonal histone-antibodies against H3K4 (abcam, Cambridge, UK), H3K79 and AcH4 (both upstate, Lake Placid, N.Y.). […] PCR products were processed by using the QuantiTect SYBR Green PCR kit to perform quantitative RT-PCRs employing the ABI PRISM 7900 (Applied Biosystems).
structure (smiles),measurement,setting,value
"Cc1ccc(-n2nc(C(C)(C)C)cc2NC(=O)Nc2ccc(OCCN3CCOCC3)c3ccccc23)cc1 [BIRB 796 BS, 1-(5-tert-butyl-2-p-tolyl-2H-pyrazol-3-yl)-3-[4-(2-morpholin-4-yl-ethoxy)-naphthalen-1-yl]-urea]","increase in cytokines such as TNF, IL-6 or IL-10 after LPS administration","TNF, IL-6 or IL-10",did not show a significant increase in these cytokines
CN(C)CCCn1cc(C2=C(c3c[nH]c4ccccc34)C(=O)NC2=O)c2ccccc21 [GF109203X],"late-stage LPS-induced gene expression change (principal component analysis, FIG. 4)",[1],did not significantly change gene expression
COc1cccc(-c2cc(=O)c3ccccc3o2)c1N [PD98059],"late-stage LPS-induced gene expression change (principal component analysis, FIG. 4)",[1],did not significantly change gene expression
"Oc1ccc(-c2nc(-c3ccncc3)c(-c3ccc(F)cc3)[nH]2)cc1 [SB202190, 4-(4-fluorophenyl)-2-2(4-hydroxyphenyl)-5-(4-pyridyl)-imidazole]",acetylation of H4 (AcH4) at pro-inflammatory genes,[2],sustained high acetylation of H4 (AcH4)
same,down-regulation of inflammatory response genes in the late stage of LPS-signaling,"[1]; human monocytes, 16 hours 100 ng/ml LPS, 10 μm SB202190",reversed the down-regulation of inflammatory response genes
same,"late-stage LPS-induced gene expression change (principal component analysis, FIG. 4)",[1],changed significantly
